According to US20040142981A1, “Antibacterial benzoic acid derivatives” (priority 2002, published 2004):
Values after ≈ are worked out from the molar mass of the structure shown.

Key:
SAUR 9218 = test: MIC by standard agar dilution method; format: cell-based; settings: Mueller Hinton agar, incubated overnight at 35° C., lowest concentration that inhibits visible growth
Procedure: MIC Test Method The in vitro MICs of test compounds were determined by a standard agar dilution method. A stock drug solution of each analog was prepared in the preferred solvent, usually DMSO:H2O (1:3). Serial 2-fold dilutions of each sample are made using 1.0 ml aliquots of sterile distilled water. To each 1.0 ml aliquot of drug was added 9 ml of molten Mueller Hinton agar medium. The drug-supplemented agar was mixed, poured into 15×100 mm petri dishes, and allowed to solidify and dry prior to inoculation. Vials of each of the test organisms are maintained frozen in the vapor phase of a liquid nitrogen freezer. Test cultures are grown overnight at 35° C. on the medium appropriate for the organism. Colonies are harvested with a sterile swab, and cell suspensions are prepared in Trypticase Soy broth (TSB) to equal the turbidity of a 0.5 McFarland standard. A 1:20 dilution of each suspension was made in TSB. The plates containing the drug supplemented agar are inoculated with a 0.001 ml drop of the cell suspension using a Steers replicator, yielding approximately 10^4 to 10^5 cells per spot. The plates are incubated overnight at 35° C. Following incubation the Minimum Inhibitory Concentration (MIC μg/ml), the lowest concentration of drug that inhibits visible growth of the organism, was read and recorded.

Structure (SMILES)	MIC (SAUR 9218) [µg/mL]	melting point [°C]
CC(C)(C)C(=O)OCn1nnc(-c2cc(Br)ccc2NC(=O)c2cccc(S(=O)(=O)N3CCOCC3)c2)n1 [Example 21, [5-(5-bromo-2-{[3-(morpholin-4-ylsulfonyl)benzoyl]amino}phenyl)-2H-tetraazol-2-yl]methyl pivalate]	> 64	210 to 212
N#Cc1ccc(NC(=O)c2ccc(S(=O)(=O)N3CCc4cc(Cl)ccc43)cc2)c(-c2n[nH]c(=S)o2)c1 [Example 23, 4-[(5-chloro-2,3-dihydro-1H-indol-1-yl)sulfonyl]-N-[4-cyano-2-(5-thioxo-4,5-dihydro-1,3,4-oxadiazol-2-yl)phenyl]benzamide]	8 (≈ 14.9 µM)	225 to 229
O=C(Nc1ccc(Br)cc1-c1nnn[nH]1)c1cccc(S(=O)(=O)N2CCOCC2)c1 [Example 17, N-[4-bromo-2-(1H-tetraazol-5-yl)phenyl]-3-(morpholin-4-ylsulfonyl)benzamide]	64 (≈ 130 µM)	228 to 230
O=C(Nc1ccc(Br)cc1-c1noc(=O)[nH]1)c1cccc(Oc2ccccc2)c1 [Example 16, N-[4-Bromo-2-(5-oxo-4,5-dihydro-1,2,4-oxadiazol-3-yl)phenyl]-3-phenoxybenzamide]	16 (≈ 35.4 µM)	185 to 187

Continued by falling MIC (SAUR 9218), values first:

MIC (SAUR 9218) [µg/mL]	melting point [°C]	Structure (SMILES)
64 (≈ 146 µM)	230 to 232	N#Cc1ccc(NC(=O)c2cccc(S(=O)(=O)N3CCOCC3)c2)c(-c2nnn[nH]2)c1 [Example 20, N-[4-cyano-2-(1H-tetraazol-5-yl)phenyl]-3-(morpholin-4-ylsulfonyl)benzamide]
32 (≈ 61.3 µM)	262 to 264	N#Cc1ccc(NC(=O)c2ccc(S(=O)(=O)N3CCc4cc(Cl)ccc43)cc2)c(-c2n[nH]c(=O)o2)c1 [Example 22, 4-[(5-chloro-2,3-dihydro-1H-indol-1-yl)sulfonyl]-N-[4-cyano-2-(5-oxo-4,5-dihydro-1,3,4-oxadiazol-2-yl)phenyl]benzamide]
